# Like-named read-outs stand apart in the source and are kept apart here.
# Tests used:
# [1] = test system: Wistar male rats subjected to global cerebral ischemia; assay: Imaging of cerebral ROS with dihydroethidium (DHE) in brain ischemia; assay type: in vivo, rat; conditions: 2.0 mg/kg i.v. at reperfusion onset; CA1 and cortical regions; 6 h of reperfusion
# Protocol: In order to evaluate the antioxidant capacity of QN23 in vivo, the fluorescent probe dihydroethidium (DHE) was used for superoxide and hydrogen peroxide detection according to the experimental procedure described in [29], with minor modifications. Animals subjected to global cerebral ischemia (Wistar male rats of 280–300 g) were treated with vehicle or QN23 at the onset of the reperfusion period, and after 2 h of reperfusion DHE (3.0 mg/kg; 0.9 mg/mL in DMSO/polyethylene glycol 400/saline, 2.5:50:47.5 v/v) was intravenously injected (1 mL). DHE (Sigma-Aldrich, Merck KGaA, Darmstadt, Germany) was freshly weighted and dissolved just before the injection to avoid undesired air-driven oxidation. At 6 h of reperfusion after ischemia (4 h after DHE injection), the animals were euthanized and perfused with saline and 4% (w/v) paraformaldehyde in PBS. […]
# Hippocampal CA1 subfields and cortical fields from a given brain section were randomly selected and analyzed with fluorescence microscopy (20× objective), and the selected images (425 × 340 μm) were digitized with a color CCD camera (1280 × 1024 pixel resolution). Fluorescence intensity (in red) of ROS-reacted DHE was evaluated and normalized to the number of DAPI-stained nuclei by using an image analysis software (Image-J 1.53). At least four images per brain sample, and 3 to 6 brains per experimental group, were evaluated and averaged. […]
# [2] = test system: adult male Wistar rats, four-vessel occlusion (4VO) transient forebrain ischemia; assay: Long-term behavioral tests in the Y maze; assay type: in vivo, rat; conditions: 2.0 mg/kg i.v. at reperfusion onset, 11 weeks after ischemia
# Protocol: Long-term assessment of neurological damage after the ischemic episode was performed by the evaluation of the spontaneous exploratory activity (spatial recognition) and spatial memory skills in the Y maze.
# For the assessment of the exploratory activity and spatial recognition, control animals and ischemic animals treated with vehicle, QN23, or NXY-059 were placed in the center of the maze and allowed free exploration for 8 min. An independent researcher blind to the treatment allocation registered the total number of arms that the animal entered indistinctly (arm entries), and the times that the animal explored the three different arms of the maze consecutively (alternations or triads).
# For the assessment of spatial memory, experiments consisted of two trials. For the first trial (training), control and ischemic animals treated with vehicle or QN23 were placed into one of the arms (start arm) and allowed to explore the Y maze for 10 min with one of the arms closed. One hour after the training trial, the animals were returned to the Y maze and the second trial was conducted. The animals were placed in the same start arm as in the training trial, but now with the remaining two arms of the maze available for exploration for 3 min. A researcher blind to the treatment allocation registered the first choice of arm for entry (novel or old).
# [3] = Toxicokinetics study, plasma concentration by LC-MS/MS after single i.v. bolus; assay type: in vivo, rat; conditions: for Clast / Cmax / AUC(0-t) / C0 / clearance / Vd / k el / half-life: female Sprague Dawley rats, plasma, mean ± SE, n = 6; for Cmax / AUC(0-t) / C0 / clearance / Vd / k el / half-life: rat, iv; for AUC(0-t): read-out: AUC0–8h; for C0: read-out: C0 (initial concentration); for clearance: read-out: Cl (clearance) (converted); for Vd: read-out: Vd (volume of distribution); for k el: read-out: kel (elimination constant) (converted); for half-life: read-out: t1/2 (half-life) (converted)
# Protocol: (§1) For the toxicokinetics study of QN23, female Sprague Dawley rats (9–10 weeks, Envigo, Barcelona, Spain) were divided into three groups (n = 6 per group) and treated intravenously with different concentrations of QN23 (2.0, 6.0, and 18 mg/kg), in vehicle solution (ethanol/polyethylene glycol 400/saline, 1:200:60 v/v), as a single bolus of 1 mL injection at 3 mL/min. Samples of plasma were taken at 0.25, 0.5, 1, 2, 4, and 8 h after the first administration (on day 1) and QN23 concentration was determined by liquid chromatography–mass spectrometry in tandem (LC-MS/MS) analysis for pharmacokinetic study. For the determination of the toxicokinetic parameters, a noncompartmental analysis was performed using the Phoenix 64 WinNonlin software (version 8.0, Certara, Sant Louis, MO, USA). This study was carried out by Swiss BioQuant AG (Reinach, Switzerland). For the toxicity study of QN23, rats were divided into four groups (n = 5 per group) and treated intravenously with vehicle (control group) or different concentrations of QN23 (2.0, 6.0, and 18 mg/kg) as a single bolus injection in a 4-day repeated dose as described above. Pathology analyses, comprising hematology, clinical biochemistry, and coagulation, were performed, and heart, kidney, liver, and spleen necropsies were collected for macroscopic analysis. This study was carried out by Vivotecnia Research S.L (Madrid, Spain).
# [4] = test system: female Sprague Dawley rats; assay: Toxicity study, 4-day repeated i.v. dose; assay type: in vivo, rat
# Protocol: as §1
# [5] = test system: carrageenan-induced rat paw edema; set-up: method as in PMID 30715875; conditions: cited from earlier work
# [6] = four-day repeated i.v. dose, 2.0, 6.0 and 18 mg/kg
# [7] = four-day repeated i.v. dose, at some doses, no treatment-related effects concluded
smiles,measurement,setting,value
"COc1ccc2nc(Cl)c(/C=[N+](\[O-])C(C)(C)C)cc2c1 [QN23, (Z)-N-tert-Butyl-1-(2-chloro-6-methoxyquinolin-3-yl)methanimine Oxide]",Fluorescence intensity of ROS-reacted DHE compared with vehicle,[1],decreased significantly
same,Y maze arm entries (exploratory activity),[2],higher number of new entries
same,"Y maze alternations (triads completed), spatial recognition","[2]; vehicle 5.0, control 15.75",7.8
same,Percentage of animals exploring the novel arm as a first choice (spatial memory),"[2]; vehicle 17%, control 75%",67%
same,Clast,[3]; 2.0 mg/kg single i.v. bolus,30 ± 8 ng/mL
same,Latest time after injection with quantifiable plasma concentration,[3]; 6 mg/kg single i.v. bolus,≤ 4 h
same,Clast,[3]; 6.0 mg/kg single i.v. bolus,34 ± 5 ng/mL
same,Last concentration found as share of the initial (and maximal) detected concentration,[3]; 18 mg/kg single i.v. bolus,approximately 1%
same,Clast,[3]; 18 mg/kg single i.v. bolus,49 ± 5 ng/mL
same,AUC0–8h versus dose,"[3]; 2.0, 6.0 and 18 mg/kg single i.v. bolus",increased proportional to the dose administered
same,Cmax,[3]; 2.0 mg/kg single i.v. bolus,161 ± 86 ng/mL
same,AUC(0-t),[3]; 2.0 mg/kg single i.v. bolus,160 ± 61 ng·h/mL
same,C0,[3]; 2.0 mg/kg single i.v. bolus,540 ± 186 ng/mL
same,Cmax,[3]; 6.0 mg/kg single i.v. bolus,1090 ± 371 ng/mL
same,AUC(0-t),[3]; 6.0 mg/kg single i.v. bolus,1010 ± 355 ng·h/mL
same,C0,[3]; 6.0 mg/kg single i.v. bolus,2170 ± 661 ng/mL
same,Cmax,[3]; 18 mg/kg single i.v. bolus,2570 ± 1200 ng/mL
same,AUC(0-t),[3]; 18 mg/kg single i.v. bolus,2960 ± 1290 ng·h/mL
same,C0,[3]; 18 mg/kg single i.v. bolus,4350 ± 1860 ng/mL
same,clearance,[3]; 2.0 mg/kg single i.v. bolus,73.3 mL/min
same,Vd,[3]; 2.0 mg/kg single i.v. bolus,1.26 ± 0.434 L
same,k el,[3]; 2.0 mg/kg single i.v. bolus,0.00118 s⁻¹
same,half-life,[3]; 2.0 mg/kg single i.v. bolus,9.6 ± 0.6 min
same,clearance,[3]; 6.0 mg/kg single i.v. bolus,56.7 mL/min
same,Vd,[3]; 6.0 mg/kg single i.v. bolus,1.66 ± 0.584 L
same,k el,[3]; 6.0 mg/kg single i.v. bolus,0.000931 s⁻¹
same,half-life,[3]; 6.0 mg/kg single i.v. bolus,14.4 ± 1.8 min
same,clearance,[3]; 18 mg/kg single i.v. bolus,78.1 mL/min
same,Vd,[3]; 18 mg/kg single i.v. bolus,20.4 ± 12.3 L
same,k el,[3]; 18 mg/kg single i.v. bolus,0.000347 s⁻¹
same,half-life,[3]; 18 mg/kg single i.v. bolus,67.8 ± 23.4 min
same,Tolerability of repeated intravenous administration,"[4]; 2.0, 6.0 and 18 mg/kg i.v. for four days",well tolerated
same,Treatment-related systemic signs,"[4]; 2.0, 6.0 and 18 mg/kg i.v., four-day repeated dose, compared with control group",no treatment-related systemic signs were detected
same,Absolute or relative organ weights versus control group,[4]; [6],no significant differences
same,Food intake,[4]; [6],no effects were observed
same,"Macroscopic findings at necropsy (heart, kidneys, liver, spleen)",[4]; [6],no macroscopic findings
same,"Alkaline phosphatase (ALP) level, slight variation",[4]; [7],decreased
same,"Aspartate aminotransferase (AST) level, slight variation",[4]; [7],increased
same,Anti-inflammatory activity,[5],showed anti-inflammatory properties

# Source: paper PMC9220178, “Preclinical Characterization of Antioxidant Quinolyl Nitrone QN23 as a New Candidate for the Treatment of Ischemic Stroke” (Antioxidants, 2022)
